Experimental data reported in ChEMBL document CHEMBL1201862, “PubChem BioAssay data set” (2004).
Calls of active or inactive are those of the source. Rule as the data show it, for most assays here: actives have a measured EC50 and inactives only a lower limit.

What was measured:
BJ [1] = assay: cytotoxicity toward BJ-TERT fibroblasts, dose response, cell-based, RAS-independent, luminescence (AID 1933); type: functional; settings: Homo sapiens
BJ [2] = assay: cells; type: functional, cell-based; settings: Homo sapiens
BJ [3] = assay: cytotoxicity toward BJ-TERT-LT-ST fibroblasts, dose response, cell-based, RAS-independent, luminescence (AID 1935); type: functional; settings: Homo sapiens;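 also: BJ fibroblasts immortalized with TERT plus LT and ST oncogenes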
[4] = cytotoxicity toward DRD oncogenic fibroblasts, dose response, cell-based, non-viral oncogenic, luminescence (AID 1934); type: functional; settings: Homo sapiens
Cytochrome P450 2D6 = Cytochrome P450 2D6 (Homo sapiens, UniProt P10635);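 also: CYP2D6 member of a cytochrome P450 panel assay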
Cytochrome P450 2C9 = Cytochrome P450 2C9 (Homo sapiens, UniProt P11712)
[5] = target: T1, Carboxy-terminal domain RNA polymerase II polypeptide A small phosphatase 1 (Homo sapiens, UniProt Q9GZU7); assay: inhibitors of CTDSP1, concentration-response testing, biochemical assay, absorbance-based, actives from ultra-high-throughput screening (AID 540297); type: functional
T1 sequence (Q9GZU7 whole entry): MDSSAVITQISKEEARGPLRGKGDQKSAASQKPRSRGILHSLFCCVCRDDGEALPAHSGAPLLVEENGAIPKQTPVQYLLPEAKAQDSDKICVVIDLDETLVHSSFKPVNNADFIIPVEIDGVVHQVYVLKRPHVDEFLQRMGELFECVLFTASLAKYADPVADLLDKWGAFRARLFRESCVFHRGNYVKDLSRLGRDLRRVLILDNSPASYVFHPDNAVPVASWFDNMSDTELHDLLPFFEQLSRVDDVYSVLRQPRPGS

Fatty acid synthase [6] = target: T2, Fatty acid synthase (Homo sapiens, UniProt P49327); assay: FAS thioesterase domain inhibitors, dose response, biochemical, endpoint fluorescence intensity, uHTS hits (AID 624327); type: functional;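 also: fluorescence from hydrolysis of an O-methyl fluorescein acyl ester substrate by the enzyme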
Fatty acid synthase [7] = target: T2, Fatty acid synthase; assay: FAS thioesterase domain inhibitors, dose response, biochemical, kinetic fluorescence intensity (AID 624326); type: functional;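 also: rate of fluorescence rise from hydrolysis of a fluorogenic O-methyl fluorescein ester substrate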
[8] = NIH-3T3 fibroblast cytotoxicity, dose response, cytotoxicity control, cell-based, fluorescence, Alamar Blue, secondary assay (AID 2327); type: functional;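 also: NIH-3T3 mouse fibroblasts cultured with fluconazole at 8 µg/mL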
[9] = C. albicans growth with fluconazole, confirmation, fluorescence, retest (AID 2467); type: functional, cell-based
[10] = target: T3, RNA-binding protein pos-1 (Caenorhabditis elegans, UniProt G5EF15); assay: inhibitors of POS-1/mex-3 RNA binding, dose response, biochemical, fluorescence polarization (AID 1964);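 also: purified POS-1 fused to maltose binding protein made in E. coli; potency of compounds blocking POS-1 binding to fluorescent RNA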
T3 sequence (G5EF15 whole entry): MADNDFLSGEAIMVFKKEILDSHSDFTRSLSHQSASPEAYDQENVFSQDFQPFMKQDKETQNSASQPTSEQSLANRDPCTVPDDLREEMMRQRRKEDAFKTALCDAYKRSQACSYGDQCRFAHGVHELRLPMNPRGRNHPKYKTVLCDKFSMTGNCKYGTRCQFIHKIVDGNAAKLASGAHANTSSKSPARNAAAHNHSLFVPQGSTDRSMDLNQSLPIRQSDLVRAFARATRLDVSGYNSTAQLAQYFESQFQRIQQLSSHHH

[11] = target: T4, Zinc finger protein mex-5 (Caenorhabditis elegans, UniProt Q9XUB2); assay: MEX-5/TCR-2 RNA interaction inhibitors, dose response, biochemical, C. elegans, fluorescence polarization (AID 1960)
T4 sequence (Q9XUB2 whole entry): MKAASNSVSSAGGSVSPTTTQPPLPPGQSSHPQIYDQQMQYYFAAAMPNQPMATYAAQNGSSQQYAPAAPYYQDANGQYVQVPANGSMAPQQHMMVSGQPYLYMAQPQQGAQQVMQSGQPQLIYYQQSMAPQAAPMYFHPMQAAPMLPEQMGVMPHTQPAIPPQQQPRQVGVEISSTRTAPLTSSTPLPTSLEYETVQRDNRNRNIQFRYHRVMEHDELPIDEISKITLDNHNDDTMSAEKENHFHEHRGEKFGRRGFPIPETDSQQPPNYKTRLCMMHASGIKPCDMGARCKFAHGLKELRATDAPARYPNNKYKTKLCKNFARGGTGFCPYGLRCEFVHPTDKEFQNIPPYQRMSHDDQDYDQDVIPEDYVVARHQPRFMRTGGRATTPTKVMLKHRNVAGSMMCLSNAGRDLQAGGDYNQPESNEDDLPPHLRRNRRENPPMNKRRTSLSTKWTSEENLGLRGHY

Leucine aminopeptidase = target: T5, Leucine aminopeptidase (Plasmodium falciparum 3D7, UniProt Q8IL11); assay: P. falciparum M17LAP inhibitors, primary screen, biochemical, fluorogenic H-Leu-NHMec substrate, 1536-well (AID 1619); type: functional
T5 sequence (Q8IL11 whole entry): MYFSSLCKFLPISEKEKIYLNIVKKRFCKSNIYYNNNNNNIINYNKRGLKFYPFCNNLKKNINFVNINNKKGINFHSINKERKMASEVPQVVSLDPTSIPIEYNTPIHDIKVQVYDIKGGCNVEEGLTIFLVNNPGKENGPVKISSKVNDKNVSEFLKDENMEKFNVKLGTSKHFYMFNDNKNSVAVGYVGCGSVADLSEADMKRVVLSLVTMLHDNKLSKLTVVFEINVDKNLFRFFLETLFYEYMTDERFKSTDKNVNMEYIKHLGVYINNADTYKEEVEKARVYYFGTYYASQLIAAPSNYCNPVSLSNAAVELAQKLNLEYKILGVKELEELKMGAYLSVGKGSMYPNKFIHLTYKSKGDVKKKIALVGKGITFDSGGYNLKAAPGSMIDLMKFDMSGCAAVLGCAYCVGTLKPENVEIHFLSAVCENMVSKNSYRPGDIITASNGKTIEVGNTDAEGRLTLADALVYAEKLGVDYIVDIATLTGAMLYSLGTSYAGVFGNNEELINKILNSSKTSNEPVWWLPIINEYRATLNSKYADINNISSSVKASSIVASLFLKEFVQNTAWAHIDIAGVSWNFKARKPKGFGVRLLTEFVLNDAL

[12] = P. falciparum Dd2 growth inhibitors, dose response, SYBR Green, dry powder samples, set 9 (AID 1159568); type: functional, cell-based
[13] = test system: Streptococcus sp. 'group A'; assay: growth inhibition of control SK(-) GAS strain, dose response, counter-screen for streptokinase expression inhibitor project, luminescence, kanamycin, BacTiterGlo, confirmation (AID 1900); type: functional, organism-based
Streptokinase A = target: T6, Streptokinase A (Streptococcus pyogenes serotype M1, UniProt P10520); assay: S. pyogenes streptokinase expression inhibitors, potency, dose response, plasminogen activation absorbance, OD405 (AID 1914); type: functional, Streptococcus pyogenes M1 GAS;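 also: secreted streptokinase activity via plasminogen activation per viability signal from cell pellet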
T6 sequence (P10520 whole entry): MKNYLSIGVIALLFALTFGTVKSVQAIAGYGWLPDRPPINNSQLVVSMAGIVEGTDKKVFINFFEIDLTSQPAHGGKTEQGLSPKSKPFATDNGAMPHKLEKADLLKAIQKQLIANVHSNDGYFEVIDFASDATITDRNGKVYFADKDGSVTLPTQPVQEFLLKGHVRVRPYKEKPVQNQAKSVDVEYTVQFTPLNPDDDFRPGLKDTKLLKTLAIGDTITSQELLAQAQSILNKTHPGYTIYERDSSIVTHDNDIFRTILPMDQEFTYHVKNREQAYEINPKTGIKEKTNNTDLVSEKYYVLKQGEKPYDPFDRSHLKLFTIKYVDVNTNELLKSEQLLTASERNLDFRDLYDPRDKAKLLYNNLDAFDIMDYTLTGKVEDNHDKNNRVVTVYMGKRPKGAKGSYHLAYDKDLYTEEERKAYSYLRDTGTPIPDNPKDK

Large T antigen = Large T antigen (Simian virus 40, UniProt P03070); type: functional, Betapolyomavirus macacae;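 also: Confirmatory-stage PubChem screen for compounds that inhibit SV40 T antigen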
[14] = microbe, parasite or virus in culture; type: functional; settings: Mycobacterium tuberculosis
Streptococcus = assay: Group A Streptococcus viability loss, dose response, counter-screen for streptokinase expression inhibitor project, luminescence, BacTiterGlo (AID 1915); type: functional, organism-based;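 also: potency for reduction of bacterial viability or growth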

T2 sequence (P49327 whole entry, the tested form may be a part): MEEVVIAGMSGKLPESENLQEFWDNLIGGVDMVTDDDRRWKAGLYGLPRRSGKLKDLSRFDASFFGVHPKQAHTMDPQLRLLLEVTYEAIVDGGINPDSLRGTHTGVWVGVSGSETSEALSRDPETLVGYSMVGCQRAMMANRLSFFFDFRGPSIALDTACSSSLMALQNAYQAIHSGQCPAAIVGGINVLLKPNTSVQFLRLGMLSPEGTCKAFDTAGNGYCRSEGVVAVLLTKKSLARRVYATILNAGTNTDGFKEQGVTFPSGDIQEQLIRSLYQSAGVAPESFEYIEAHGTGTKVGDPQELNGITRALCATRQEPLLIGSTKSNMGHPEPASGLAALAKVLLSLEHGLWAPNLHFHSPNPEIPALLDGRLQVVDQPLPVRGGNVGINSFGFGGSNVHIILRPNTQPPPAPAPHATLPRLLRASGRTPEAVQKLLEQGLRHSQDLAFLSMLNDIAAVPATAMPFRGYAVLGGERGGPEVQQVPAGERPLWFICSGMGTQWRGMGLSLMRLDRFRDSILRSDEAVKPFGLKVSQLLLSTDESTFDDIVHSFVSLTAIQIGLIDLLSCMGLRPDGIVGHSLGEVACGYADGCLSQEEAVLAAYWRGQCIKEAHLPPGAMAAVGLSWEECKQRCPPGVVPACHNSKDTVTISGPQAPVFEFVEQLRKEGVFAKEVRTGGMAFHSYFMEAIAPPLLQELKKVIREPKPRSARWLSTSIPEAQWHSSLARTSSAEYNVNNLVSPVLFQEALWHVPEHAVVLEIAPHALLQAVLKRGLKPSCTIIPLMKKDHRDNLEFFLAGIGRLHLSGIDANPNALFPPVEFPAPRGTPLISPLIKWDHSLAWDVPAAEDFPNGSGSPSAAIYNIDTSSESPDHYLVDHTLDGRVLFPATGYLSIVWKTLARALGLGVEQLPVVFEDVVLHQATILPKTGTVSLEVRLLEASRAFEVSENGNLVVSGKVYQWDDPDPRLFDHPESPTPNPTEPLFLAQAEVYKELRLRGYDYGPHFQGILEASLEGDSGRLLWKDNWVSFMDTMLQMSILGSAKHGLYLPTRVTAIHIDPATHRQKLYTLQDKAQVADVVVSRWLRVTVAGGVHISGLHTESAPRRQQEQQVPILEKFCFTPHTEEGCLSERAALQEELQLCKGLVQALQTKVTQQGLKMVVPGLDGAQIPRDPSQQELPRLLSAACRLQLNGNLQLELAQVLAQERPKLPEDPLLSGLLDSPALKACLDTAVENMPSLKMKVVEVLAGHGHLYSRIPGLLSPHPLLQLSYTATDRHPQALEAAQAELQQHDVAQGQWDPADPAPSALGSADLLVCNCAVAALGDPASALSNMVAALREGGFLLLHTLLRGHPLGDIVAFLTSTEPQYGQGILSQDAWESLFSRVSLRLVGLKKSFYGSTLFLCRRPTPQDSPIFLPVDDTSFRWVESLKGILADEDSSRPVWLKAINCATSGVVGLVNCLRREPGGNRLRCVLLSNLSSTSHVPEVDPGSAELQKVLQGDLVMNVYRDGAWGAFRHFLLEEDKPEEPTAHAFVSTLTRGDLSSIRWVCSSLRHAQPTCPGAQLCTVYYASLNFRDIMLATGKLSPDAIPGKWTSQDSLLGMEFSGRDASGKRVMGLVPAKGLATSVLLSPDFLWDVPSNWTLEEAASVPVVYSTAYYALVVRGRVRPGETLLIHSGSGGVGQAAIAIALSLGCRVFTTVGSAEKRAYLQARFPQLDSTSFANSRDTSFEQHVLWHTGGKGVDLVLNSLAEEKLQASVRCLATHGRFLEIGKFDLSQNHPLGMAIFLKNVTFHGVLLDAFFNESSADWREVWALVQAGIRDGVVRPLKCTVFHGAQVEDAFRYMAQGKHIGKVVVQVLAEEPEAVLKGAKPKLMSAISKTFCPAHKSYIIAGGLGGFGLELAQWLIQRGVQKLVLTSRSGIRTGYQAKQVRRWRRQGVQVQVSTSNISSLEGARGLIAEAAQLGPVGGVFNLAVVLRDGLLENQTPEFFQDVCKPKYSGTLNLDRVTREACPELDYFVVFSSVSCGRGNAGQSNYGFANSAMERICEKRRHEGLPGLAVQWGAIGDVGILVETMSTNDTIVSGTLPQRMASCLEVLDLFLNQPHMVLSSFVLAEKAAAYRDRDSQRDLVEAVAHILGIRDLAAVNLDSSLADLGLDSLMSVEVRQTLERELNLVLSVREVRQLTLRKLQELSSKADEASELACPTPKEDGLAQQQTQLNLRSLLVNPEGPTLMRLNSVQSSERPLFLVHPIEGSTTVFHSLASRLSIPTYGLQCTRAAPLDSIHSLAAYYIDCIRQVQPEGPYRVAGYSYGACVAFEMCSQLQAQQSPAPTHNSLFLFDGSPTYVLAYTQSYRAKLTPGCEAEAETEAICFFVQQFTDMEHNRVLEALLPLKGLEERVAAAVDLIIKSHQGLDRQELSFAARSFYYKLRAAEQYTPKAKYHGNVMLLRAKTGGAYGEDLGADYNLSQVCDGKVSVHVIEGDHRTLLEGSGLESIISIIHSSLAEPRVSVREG
Cytochrome P450 2D6, sequence (P10635 whole entry): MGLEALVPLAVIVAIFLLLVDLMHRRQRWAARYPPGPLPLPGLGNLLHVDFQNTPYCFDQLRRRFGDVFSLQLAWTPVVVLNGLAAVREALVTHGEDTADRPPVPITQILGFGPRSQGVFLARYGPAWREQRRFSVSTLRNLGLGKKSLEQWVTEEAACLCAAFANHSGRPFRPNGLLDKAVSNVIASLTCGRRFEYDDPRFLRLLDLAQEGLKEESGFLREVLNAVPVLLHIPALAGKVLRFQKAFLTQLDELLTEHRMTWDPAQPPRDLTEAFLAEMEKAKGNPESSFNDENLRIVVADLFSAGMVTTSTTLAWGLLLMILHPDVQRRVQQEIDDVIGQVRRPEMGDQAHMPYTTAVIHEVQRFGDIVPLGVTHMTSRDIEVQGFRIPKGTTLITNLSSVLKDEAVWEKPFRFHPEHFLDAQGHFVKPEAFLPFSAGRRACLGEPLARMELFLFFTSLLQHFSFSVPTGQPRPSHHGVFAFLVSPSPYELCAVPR
Cytochrome P450 2C9, sequence (P11712 whole entry, the tested form may be a part): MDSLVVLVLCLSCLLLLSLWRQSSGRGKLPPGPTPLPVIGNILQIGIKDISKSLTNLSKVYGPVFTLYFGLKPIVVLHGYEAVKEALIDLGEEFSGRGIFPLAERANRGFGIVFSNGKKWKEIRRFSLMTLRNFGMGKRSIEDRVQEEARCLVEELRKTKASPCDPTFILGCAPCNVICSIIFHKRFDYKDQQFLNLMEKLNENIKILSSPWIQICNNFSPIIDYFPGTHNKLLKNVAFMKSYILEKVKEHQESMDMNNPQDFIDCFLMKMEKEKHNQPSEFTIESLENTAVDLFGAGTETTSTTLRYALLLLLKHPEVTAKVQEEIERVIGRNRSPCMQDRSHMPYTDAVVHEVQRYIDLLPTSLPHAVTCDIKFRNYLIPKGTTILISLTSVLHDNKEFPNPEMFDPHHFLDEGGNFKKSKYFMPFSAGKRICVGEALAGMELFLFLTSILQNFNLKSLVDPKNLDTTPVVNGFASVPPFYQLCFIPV
Large T antigen, sequence (P03070 whole entry): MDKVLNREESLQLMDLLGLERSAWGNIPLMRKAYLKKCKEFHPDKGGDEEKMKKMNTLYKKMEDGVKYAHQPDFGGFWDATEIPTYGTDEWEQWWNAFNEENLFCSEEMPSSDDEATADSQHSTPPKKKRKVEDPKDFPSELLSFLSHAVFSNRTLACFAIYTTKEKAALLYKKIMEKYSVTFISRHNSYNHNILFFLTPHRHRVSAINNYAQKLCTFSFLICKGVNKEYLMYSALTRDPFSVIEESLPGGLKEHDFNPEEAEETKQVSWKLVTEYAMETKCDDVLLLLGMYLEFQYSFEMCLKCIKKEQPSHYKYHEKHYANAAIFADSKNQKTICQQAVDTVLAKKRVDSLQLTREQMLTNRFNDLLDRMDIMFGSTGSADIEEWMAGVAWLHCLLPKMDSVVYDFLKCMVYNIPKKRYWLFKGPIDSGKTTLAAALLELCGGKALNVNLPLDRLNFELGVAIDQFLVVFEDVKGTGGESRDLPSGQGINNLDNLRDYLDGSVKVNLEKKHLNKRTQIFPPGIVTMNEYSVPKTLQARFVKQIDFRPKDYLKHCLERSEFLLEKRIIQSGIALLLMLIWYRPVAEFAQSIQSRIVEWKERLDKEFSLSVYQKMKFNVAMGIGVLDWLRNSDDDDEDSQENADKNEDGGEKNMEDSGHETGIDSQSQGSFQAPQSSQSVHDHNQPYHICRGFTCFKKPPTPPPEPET

Cc1ccc(C(=O)c2cc3ccccc3o2)cc1[N+](=O)[O-]
EC50 (BJ [1]): > 150 µM (not active) | EC50 (BJ [2]): > 150 µM (not active) | EC50 (BJ [3]): > 150 µM (inconclusive) | EC50 [4]: > 150 µM (not active)

Cn1c(=O)c2cc(S(=O)(=O)NCCC(=O)NCc3ccccc3Cl)ccc2n(C)c1=O
AC50 (Cytochrome P450 2D6): 17.8 µM (inconclusive) | AC50 (Cytochrome P450 2C9): inconclusive

Cc1ccc(NC(=O)CN2C(=O)CSc3ccc(S(=O)(=O)N4CCCCC4)cc32)cc1
IC50 [5]: 4.3 µM (active) | IC50 (Fatty acid synthase [6]): 14.9 µM (active) | IC50 (Fatty acid synthase [7]): 9.65 µM (active)

O=C(CNc1ccccc1F)N/N=C/C1CC=CCC1 (stereo not given)
EC50 [8]: > 160 µM (inactive) | EC50 [9]: > 38 µM (not active)

CCOC(=O)c1cc2c(=O)n3ccccc3nc2n(C(C)C)/c1=N\C(=O)c1ccncc1
EC50 [10]: > 300 µM (not active) | EC50 [11]: > 300 µM (not active)

CSc1nnc(-c2ccccc2/N=C/c2c(C)nn(-c3ccccc3)c2O)c(O)n1
IC50 (Leucine aminopeptidase): 48.6 µM (active)

C/N=C1\S/C(=C\c2cn(CC(=O)OC)c3ccccc23)C(=O)N1C
EC50 [10]: > 300 µM (not active) | EC50 [11]: > 300 µM (not active)

COc1ccc2c3c([nH]c2c1)[C@H](CO)N(C(C)=O)CC31CCN(C(=O)Nc2ccc(F)cc2F)CC1
AC50 [12]: 0.548 µM (active)

C[C@H](CO)N1C[C@H](C)[C@H](CN(C)S(=O)(=O)c2ccccc2)OCCCC[C@H](C)Oc2ccc(NC(=O)Nc3ccc4c(c3)OCO4)cc2C1=O
AC50 [12]: 8.9 µM (active)

O=C(Cc1ccccn1)N1CC2(C1)[C@H](c1ccccc1)[C@H](CO)N2C(=O)c1ccncc1
AC50 [12]: 30 µM (active)

C[C@@H]1CCCCO[C@@H](CN(C)S(=O)(=O)c2ccc(F)cc2)[C@H](C)CN([C@@H](C)CO)C(=O)c2cc(N(C)C)ccc2O1
AC50 [12]: 7.31 µM (active)

C[C@@H]1CN([C@@H](C)CO)C(=O)c2ccccc2-c2ccccc2CO[C@@H]1CN(C)S(=O)(=O)Cc1ccccc1
AC50 [12]: 21.9 µM (active)

O=C(O)c1ccc(-n2cccc2)cc1O
EC50 [10]: > 300 µM (not active) | EC50 [11]: > 300 µM (not active)

N=C(N)N/N=C1C=C/C(=N\NC(N)=S)C=C\1 [AMBAZONE]
EC50 [10]: 76.5 µM (active) | EC50 [13]: < 0.06 µM (active) | EC50 [11]: 9.73 µM (active) | EC50 (Streptokinase A): > 150 µM (not active) | IC50 (Large T antigen): 13.7 µM (active) | CC50 [14]: > 40 µM (active) | EC50 (Streptococcus): 0.35 µM (active)
